System: NIH-MDR1-G185 cells
Assay: Fluorescent Substrate Accumulation Assay (BODIPY-FL Taxol accumulation)
Assay type: cell-based
Settings: fluorescence in NIH-MDR1-G185 cells in presence / absence of modulator; BODIPY-FL Taxol 500 nM, 40 min at 37° C; modulator final concentration of 10 microliters (so in the source)
Description: NIH-MDR1-G185 cells (obtained from M. Gottesman, NIH) were harvested and resuspended in RPMI-1640 containing L-glutamine, 10% Cosmic Calf Serum and penicillin-streptomycin. Cell suspension aliquots of 175 microliters (1×10^5 cells) were added to individual wells of a 96 well microtiter plate and preincubated for 15 min at 37° C with 20 microliters MDR modulator diluted in cell culture media to give a final concentration of 10 microliters. Control wells received no modulating agent. BODIPY-FL Taxol (Molecular Probes, Eugene, Oreg.) was added to each well in 10 microliter aliquots to give a final concentration of 500 nM and cells were incubated for 40 min at 37° C. Cells were centrifuged at 100× g for 5 min at 4° C. and the cell pellet washed with 200 microliters cold PBS to remove fluorescent medium from wells. Cells were centrifuged once more, media removed, and cells resuspended in 200 microliters cold PBS. Fluorescence accumulation was measured in a fluorescence plate reader fitted with an excitation filter of 485 nm and an emission filter of 538 nm. BODIPY-FL taxol accumulation in the cells was calculated as follows:
Accumulation Index=(fluorescence in NIH-MDR1-G185 cells in the presence of modulator )/(fluorescence in NIH-MDR1-G185 cells in absence of modulator)
Accumulation Index of various compounds prepared above was tested according to the method in Reference Example 3.

Compound: O=C(NC(CCCc1ccccc1)CCCc1ccccc1)C1CN(C[C@@H](O)COc2cccc3ncccc23)CCN1C(=O)COCc1ccccc1 (stereo partly drawn) [Compound 38, 1-(Benzyloxyacetyl)-4-{1-[2-(R)-hydroxy-3-(quinolin-5-yloxy)-propyl]}-piperazine-2-carboxylic Acid [4-phenyl-1-(3-phenyl-propyl)-butyl]-amide]
- Accumulation Index: 5

— patent publication US20020128269A1, “Substituted heterocyclic compounds for treating multidrug resistance” (priority 2000, published 2002)
